Data as given in US10266544B2, “Aryl substituted aminomethyl spectinomycin analogs as antibacterial agents” (ST. JUDE CHILDREN'S RESEARCH HOSPITAL, INC., priority 2013, dated 2019).
Counter-ions that a name gives are not always drawn. Like-named read-outs stand apart in the source and are kept apart here.

Columns and labels:
Assay type in all cases: cell-based
[1] = test system: Stenotrophomonas maltophilia (ATCC 13637); assay: MIC determination, microbroth dilution; conditions: ATCC13637; Stenotrophomonas maltophilia (ATCC 13637); read-out: MIC S.m.
[2] = test system: M. tuberculosis clinical isolates; assay: microbe, parasite or virus in culture; conditions: Mycobacterium tuberculosis, H37RV, read-out: MIC H37Rv
[3] = test system: E. coli K12 ΔtolC; assay: microbe, parasite or virus in culture; conditions: Escherichia coli, read-out: MIC E.c. Δtolc
[4] = test system: Neisseria gonorrhoeae (ATCC 49226); assay: Disc diffusion assay; conditions: ATCC49226, 4 μg per disc, read-out: Zone of inhibition N.g.
[5] = test system: Bacillus subtilis (ATCC 23857); assay: MIC determination, microbroth dilution; conditions: ATCC23857; Bacillus subtilis (ATCC 23857); read-out: MIC B.s.
[6] = test system: Haemophilus influenza (ATCC 49247); assay: microbe, parasite or virus in culture; conditions: ATCC49247; Haemophilus influenza; 4 μg per disc; range of at least two experiments; read-out: Zone of inhibition H.i.
[7] = test system: Streptococcus pneumoniae (R6); assay: MIC determination, microbroth dilution; conditions: Streptococcus pneumoniae (R6); read-out: MIC S. pn.
[8] = test system: gram-positive and gram-negative bacteria
[9] = test system: Staphylococcus aureus (ATCC 29213); assay: MIC determination, microbroth dilution; conditions: ATCC29213; Staphylococcus aureus (ATCC 29213); read-out: MIC S.a.
[10] = test system: Bacillus anthracis; assay: microbe, parasite or virus in culture; conditions: read-out: MIC B.a.
[11] = test system: Proteus mirabilis (ATCC 25933); assay: MIC determination, microbroth dilution; conditions: ATCC25933
[12] = test system: Yersinia pestis; assay: microbe, parasite or virus in culture; conditions: read-out: MIC Y.p.
[13] = test system: MRSA, Staphylococcus aureus (NRS70); assay: MIC determination, microbroth dilution; conditions: Staphylococcus aureus (NRS70); read-out: MIC MRSA
[14] = test system: Neisseria meningitides (ATCC 13077); assay: Disc diffusion assay; conditions: ATCC13077, 4 μg per disc, read-out: Zone of inhibition N.m.
[15] = test system: Pseudomonas aeruginosa (PA01); assay: MIC determination, microbroth dilution
[16] = test system: Streptococcus pyogenes (ATCC 700294); assay: MIC determination, microbroth dilution; conditions: ATCC700294; Streptococcus pyogenes (ATCC 700294); read-out: MIC S. py.
[17] = test system: Burkholderia cepacia (ATCC 25416); assay: MIC determination, microbroth dilution; conditions: Burkholderia cepacia
[18] = test system: Enterococcus faecalis (ATCC 33186); assay: MIC determination, microbroth dilution; conditions: ATCC33186; Enterococcus faecalis (ATCC 33186); read-out: MIC E.f.
[19] = test system: Escherichia coli (ATCC 700926); assay: MIC determination, microbroth dilution; conditions: ATCC700926; Escherichia coli (ATCC 700926); read-out: MIC E.c.
[20] = test system: acinetobacter baumannii (ATCC 19606); assay: MIC determination, microbroth dilution; conditions: ATCC19606
[21] = test system: Moraxella catarrhalis; assay: MIC determination (Table 6)
[22] = test system: Neisseria gonorrhoeae (ATCC 49226); assay: Agar MIC determination (Alamar Blue); conditions: ATCC49226, agar MIC, read-out: MIC N.g.
[23] = test system: Proteus vulgaris (ATCC 33420); assay: MIC determination, microbroth dilution; conditions: ATCC33420
[24] = test system: Klebsiella pneumoniae (ATCC 33495); assay: MIC determination, microbroth dilution; conditions: ATCC33495
[25] = test system: Listeria monocytogenes; assay: MIC determination (Table 6)
[26] = test system: Bacillus anthracis, Sterne 34F2; assay: microbe, parasite or virus in culture; conditions: STERNE34F2, read-out: MIC B.a.

CN[C@@H]1[C@H](O)[C@H](NC)[C@H]2O[C@]3(O)[C@H](O[C@@H]2[C@H]1O)O[C@H](C)C[C@@]3(O)CNCCCc1ccccc1 [compound 13, 3′-(R)-3′-(phenylpropylaminomethyl)dihydrospectinomycin Trihydrochloride]
MIC [1]: 6.3 to 12.5 µg/mL | MIC [2]: 3.1 µg/mL | MIC [3]: 6.3 µg/mL | zone of inhibition at 4 µg/disc [4]: 15 mm | MIC [5]: 6.3 µg/mL | zone of inhibition at 4 µg/disc [6]: 14 mm | MIC [7]: 3.1 µg/mL | MIC relative to parent SPC [8]: ~10 % of parent SPC | MIC [9]: 12.5 µg/mL | MIC [10]: 3.1 to 6.3 µg/mL | MIC [11]: > 200 µg/mL | MIC [12]: 50 µg/mL | MIC [13]: 12.5 to 25 µg/mL | zone of inhibition at 4 µg/disc [14]: 21 mm | MIC [15]: 200 µg/mL | MIC [16]: 3.1 µg/mL | MIC ([17]; ATCC25416, read-out: MIC B.c., Burkholderia cepacia (ATCC 25416)): > 200 µg/mL | MIC ([17]; ATCC25416, read-out: MIC B.c., Burkholderia cepacia, Table 6): > 200 µg/mL | MIC [18]: 6.3 µg/mL | MIC [19]: 12.5 µg/mL | MIC [20]: > 200 µg/mL | MIC [21]: 0.4 µg/mL | MIC [22]: 12.5 to 25 µg/mL | MIC [23]: ≥ 200 µg/mL | MIC [24]: 50 µg/mL | MIC [25]: 1.6 to 3.1 µg/mL | MIC [26]: 3.1 to 6.3 µg/mL
